Results on 18 compounds are retold here after patent US20150299143A1, “SUBSTITUTED TRIAZOLE AND IMIDAZOLE COMPOUNDS” (HOFFMANN-LA ROCHE INC., priority 2012, published 2015).

Structures are written as SMILES.

Experiment [1] addresses T1, β 5i (chymotrypsin-like activity) (Homo sapiens, UniProt P20618+P28062).
T1 construct: protease activity associated with the proteasome complex in cultured cells; endogenous in cells; host or cells: Ramos cells
The experiment can be described thus: Cell-Based Proteasome subunit activity/selectivity assay, β5i, substrate (ANW)2Rh110. The conditions noted are these: Ramos cells; substrate (ANW)2Rh110 (β5i); highest concentration tested 20 μM; read-out: Ic50:ramos:ac-(anw)2-r110. In outline: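 Cell-based fluorogenic assay measuring chymotrypsin-like β5i proteasome activity using the substrate (ANW)2Rh110. Cultured cells received 0.5 μl of 100× 4-fold serial diluted compounds or DMSO per well, were incubated 30 minutes at 37° C, then equilibrated 15 minutes at room temperature. After shaking one minute @ 700 rpm and 120 min room-temperature incubation, fluorescence was read at 500 nm excitation/519 nm emission on an Envision reader.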

Experiment [2] addresses T2, β5c (chymotrypsin-like activity) (Homo sapiens, UniProt P20618+P28074).
T2 construct: protease activity associated with the proteasome complex in cultured cells; endogenous in cells; host or cells: Ramos cells
The experiment can be described thus: Cell-Based Proteasome subunit activity/selectivity assay, β5c, substrate (WLA)2Rh110. The settings on record: Ramos cells; substrate (WLA)2Rh110 (β5c); highest concentration tested 20 μM; read-out: Ic50:ramos:rh110-(wla)2. In outline: (§1)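 Subunit activity in cultured cells read with subunit-selective fluorogenic Rh110 substrates: (LLE)2 for β1c, (PAL)2 for β1i, (KQL)2 for β2c/2i, (WLA)2 for β5c. Cells exposed to 4-fold serially diluted compound (top 20 μM) 30 min at 37 °C, then substrate 120 min at room temperature; fluorescence 500/519 nm.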

Another experiment deals with β 2c/2i (trypsin-like). Kind of experiment: Cell-Based Proteasome subunit activity/selectivity assay, β2c/2i, substrate (KQL)2Rh110. The conditions noted are these: Ramos cells; substrate (KQL)2Rh110 (β2c/2i); highest concentration tested 20 μM. In outline: as §1
The target in the next experiment is T3, β 1i (caspase-like) (Homo sapiens, UniProt P28065+P40306).
T3 construct: protease activity associated with the proteasome complex in cultured cells; endogenous in cells; host or cells: Ramos cells
The experiment can be described thus: Cell-Based Proteasome subunit activity/selectivity assay, β1i, substrate (PAL)2Rh110. The settings on record: Ramos cells; substrate (PAL)2Rh110 (β1i); highest concentration tested 20 μM; read-out: Ic50:ramos:rh110-(pal)2. In outline:
as §1

Another experiment deals with T4, β 1c (caspase-like) (Homo sapiens, UniProt P28072+Q99436).
T4 construct: protease activity associated with the proteasome complex in cultured cells; endogenous in cells; host or cells: Ramos cells
Kind of experiment: Cell-Based Proteasome subunit activity/selectivity assay, β1c, substrate (LLE)2Rh110. The conditions noted are these: Ramos cells; substrate (LLE)2Rh110 (β1c); highest concentration tested 20 μM; read-out: Ic50:ramos:rh110-(lle)2. The method, boiled down:
as §1

As usually defined, the IC50 is the concentration at which inhibition is half-maximal. In the case of `CCc1ccc(C(C#N)NC(=O)c2cn(CCNC(=O)c3cc(Cl)ccc3Cl)nn2)cc1` (stereo not drawn) [Example 14, 1-[2-(2,5-Dichloro-benzoylamino)-ethyl]-1H-[1,2,3]triazole-4-carboxylic acid [cyano-(4-ethyl-phenyl)-methyl]-amide], the 50% inhibitory concentration (IC50) in experiment [1] was 0.19 µM; in experiment [2] it was not below 20 µM; with β 2c/2i (trypsin-like), not below 20 µM; at β 1i (caspase-like), not below 20 µM; at β 1c (caspase-like), not below 20 µM.
Regarding `CCc1ccc(C(C#N)NC(=O)c2cn(CCNC(=O)c3ccc(OC)c(OC)c3OC)nn2)nc1` (stereo not drawn) [Example 63, 1-[2-(2,3,4-Trimethoxy-benzoylamino)-ethyl]-1H-[1,2,3]triazole-4-carboxylic acid [cyano-(5-ethyl-pyridin-2-yl)-methyl]-amide], the IC50 in experiment [1] was 2.49 µM; in experiment [2], not below 20 µM; in the experiment with β 2c/2i (trypsin-like) it was not below 20 µM; at β 1i (caspase-like) it was not below 20 µM; on β 1c (caspase-like) it was not below 20 µM.
As for `COc1ccc(C(=O)NCCn2cc(C(=O)NC(C#N)c3ccc(C)cc3)nn2)c(OC)c1OC` (stereo not drawn) [Example 62, 1-[2-(2,3,4-Trimethoxy-benzoylamino)-ethyl]-1H-[1,2,3]triazole-4-carboxylic acid (cyano-p-tolyl-methyl)-amide], the IC50 in experiment [1] is 0.404 µM; in experiment [2], not below 20 µM; in the experiment with β 2c/2i (trypsin-like), not below 20 µM; at β 1i (caspase-like), not below 20 µM; at β 1c (caspase-like), not below 20 µM.
Regarding `COc1ccc(C(=O)NCCn2cc(C(=O)NCc3ccc(C)c(C)c3)nn2)c(OC)c1OC` [Example 4, 1-[2-(2,3,4-Trimethoxy-benzoylamino)-ethyl]-1H-[1,2,3]triazole-4-carboxylic acid 3,4-dimethyl-benzylamide], the IC50 is 4.11 µM in experiment [1]; not below 20 µM in experiment [2]; not below 20 µM with β 2c/2i (trypsin-like); not below 20 µM on β 1i (caspase-like); not below 20 µM at β 1c (caspase-like).
For the compound `O=C(N[C@@H](CCc1ccccc1)C(=O)O)c1cn(CCNC(=O)c2ccc(C(F)(F)F)cc2F)nn1` [Example 82, (S)-2-({1-[2-(2-Fluoro-4-trifluoromethyl-benzoylamino)-ethyl]-1H-[1,2,3]triazole-4-carbonyl}-amino)-4-phenyl-butyric acid], the IC50 in experiment [1] was 0.163 µM; in experiment [2], not below 20 µM; with β 2c/2i (trypsin-like) it was not below 20 µM; on β 1i (caspase-like), not below 20 µM; at β 1c (caspase-like) it was not below 20 µM.
Take `CCc1ccc(C(C#N)NC(=O)c2cn(CCNC(=O)c3ccccc3OC(F)(F)F)nn2)cc1` (stereo not drawn) [Example 24, 1-[2-(2-Trifluoromethoxy-benzoylamino)-ethyl]-1H-[1,2,3]triazole-4-carboxylic acid [cyano-(4-ethyl-phenyl)-methyl]-amide]: the IC50 in experiment [1] is 0.779 µM; in experiment [2], not below 20 µM; with β 2c/2i (trypsin-like) it was not below 20 µM; on β 1i (caspase-like), not below 20 µM; on β 1c (caspase-like), not below 20 µM.
For the compound `COc1ccc(C(C#N)NC(=O)c2cn(CCNC(=O)c3ccc(OC)c(OC)c3OC)nn2)cn1` (stereo not drawn) [Example 65, 1-[2-(2,3,4-Trimethoxy-benzoylamino)-ethyl]-1H-[1,2,3]triazole-4-carboxylic acid [cyano-(6-methoxy-pyridin-3-yl)-methyl]-amide], the IC50 in experiment [1] was 0.947 µM; in experiment [2] it was not below 20 µM; with β 2c/2i (trypsin-like), not below 20 µM; at β 1i (caspase-like), not below 20 µM; on β 1c (caspase-like) it was 17.8 µM.
For the compound `CCc1ccc(C(C#N)NC(=O)c2cn(CCNC(=O)c3cccc(OC)n3)nn2)cc1` (stereo not drawn) [Example 26, 6-Methoxy-pyridine-2-carboxylic acid [2-(4-{[cyano-(4-ethyl-phenyl)-methyl]-carbamoyl}-[1,2,3]triazol-1-yl)-ethyl]-amide], the IC50 in experiment [1] is 5.38 µM; in experiment [2], not below 20 µM; in the experiment on β 2c/2i (trypsin-like) it was not below 20 µM; at β 1i (caspase-like) it was not below 20 µM; on β 1c (caspase-like), not below 20 µM.
For the compound `COc1ccc(C(=O)NCCn2cc(C(=O)NC(C#N)c3cccc(SC)c3)nn2)c(OC)c1OC` (stereo not drawn) [Example 55, 1-[2-(2,3,4-Trimethoxy-benzoylamino)-ethyl]-1H-[1,2,3]triazole-4-carboxylic acid [cyano-(3-methylsulfanyl-phenyl)-methyl]-amide], the IC50 in experiment [1] is 4.02 µM; in experiment [2], not below 20 µM; with β 2c/2i (trypsin-like), not below 20 µM; on β 1i (caspase-like) it was not below 20 µM; on β 1c (caspase-like) it was not below 20 µM.
In the case of `COc1ccc(C(=O)CNC(=O)c2cn(CCNC(=O)c3ccc(OC)c(OC)c3OC)nn2)cc1` [Example 77, 1-[2-(2,3,4-Trimethoxy-benzoylamino)-ethyl]-1H-[1,2,3]triazole-4-carboxylic acid [2-(4-methoxy-phenyl)-2-oxo-ethyl]-amide], the IC50 was 8.75 µM in experiment [1]; not below 20 µM in experiment [2]; not below 20 µM with β 2c/2i (trypsin-like); not below 20 µM on β 1i (caspase-like); not below 20 µM on β 1c (caspase-like).
With `COc1ccc(C(=O)NCCn2cc(C(=O)NC(C#N)c3ccc(OC(C)C)cc3)nn2)c(OC)c1OC` (stereo not drawn) [Example 67, 1-[2-(2,3,4-Trimethoxy-benzoylamino)-ethyl]-1H-[1,2,3]triazole-4-carboxylic acid [cyano-(4-isopropoxy-phenyl)-methyl]-amide], the IC50 was 5.49 µM in experiment [1]; not below 20 µM in experiment [2]; not below 20 µM with β 2c/2i (trypsin-like); not below 20 µM at β 1i (caspase-like); not below 20 µM at β 1c (caspase-like).
As for `CCc1ccc(C(C#N)NC(=O)c2cn(CCNC(=O)c3ccc(C(F)(F)F)cc3OC)nn2)cc1` (stereo not drawn) [Example 23, 1-[2-(2-Methoxy-4-trifluoromethyl-benzoylamino)-ethyl]-1H-[1,2,3]triazole-4-carboxylic acid [cyano-(4-ethyl-phenyl)-methyl]-amide], the concentration for half-maximal inhibition (IC50) in experiment [1] was 0.028 µM; in experiment [2], 16.2 µM; in the experiment on β 2c/2i (trypsin-like) it was not below 20 µM; on β 1i (caspase-like), not below 20 µM; at β 1c (caspase-like), not below 20 µM.
With `CCc1ccc(C(C#N)NC(=O)c2cn(CCNC(=O)C3=C(C)c4ccccc4C3)nn2)cc1` (stereo not drawn) [Example 25, 1-{2-[(3-Methyl-1H-indene-2-carbonyl)-amino]-ethyl}-1H-[1,2,3]triazole-4-carboxylic acid [cyano-(4-ethyl-phenyl)-methyl]-amide], the half-maximal inhibitory concentration (IC50) in experiment [1] is 0.072 µM; in experiment [2] it was not below 20 µM; with β 2c/2i (trypsin-like) it was not below 20 µM; at β 1i (caspase-like), not below 20 µM; on β 1c (caspase-like), not below 20 µM.
Take `CCc1ccc(C(C#N)NC(=O)c2cn(CCNC(=O)c3ccc(OC)c(OC)c3OC)nn2)cc1` (stereo not drawn) [Example 1, 1-[2-(2,3,4-Trimethoxy-benzoylamino)-ethyl]-1H-[1,2,3]triazole-4-carboxylic acid [cyano-(4-ethyl-phenyl)-methyl]-amide]: the IC50 in experiment [1] was 0.08 µM; in experiment [2], not below 20 µM; in the experiment with β 2c/2i (trypsin-like) it was not below 20 µM; at β 1i (caspase-like), not below 20 µM; at β 1c (caspase-like), not below 20 µM.
With `CCc1ccc(C(C#N)NC(=O)c2cn(CCNC(=O)c3cccnc3OC)nn2)cc1` (stereo not drawn) [Example 29, N-[2-(4-{[Cyano-(4-ethyl-phenyl)-methyl]-carbamoyl}-[1,2,3]triazol-1-yl)-ethyl]-2-methoxy-nicotinamide], the IC50 in experiment [1] is 3.05 µM; in experiment [2], not below 20 µM; in the experiment with β 2c/2i (trypsin-like) it was not below 20 µM; on β 1i (caspase-like) it was not below 20 µM; on β 1c (caspase-like) it was not below 20 µM.
As for `CCc1ccc(C(C#N)NC(=O)c2cn(CCN3Cc4ccccc4C3=O)nn2)cc1` (stereo not drawn) [Example 46, 1-[2-(1-Oxo-1,3-dihydro-isoindol-2-yl)-ethyl]-1H-[1,2,3]triazole-4-carboxylic acid [cyano-(4-ethyl-phenyl)-methyl]-amide], the IC50 was 5.94 µM in experiment [1]; 16.1 µM in experiment [2]; not below 20 µM in the experiment with β 2c/2i (trypsin-like); not below 20 µM on β 1i (caspase-like); not below 20 µM on β 1c (caspase-like).
In the case of `CCc1ccc(C(C#N)NC(=O)c2cn(CCNC(=O)c3cccc4c3OCC4)nn2)cc1` (stereo not drawn) [Example 13, 1-{2-[(2,3-Dihydro-benzofuran-7-carbonyl)-amino]-ethyl}-1H-[1,2,3]triazole-4-carboxylic acid [cyano-(4-ethyl-phenyl)-methyl]-amide], the IC50 was 1.89 µM in experiment [1]; not below 20 µM in experiment [2]; not below 20 µM with β 2c/2i (trypsin-like); not below 20 µM at β 1i (caspase-like); not below 20 µM at β 1c (caspase-like).
In the case of `CCc1ccc(C(C#N)NC(=O)c2cn(CCCNC(=O)c3ccc(C(F)(F)F)cc3OC)nn2)cc1` (stereo not drawn) [Example 85, 1-[3-(2-Methoxy-4-trifluoromethyl-benzoylamino)-propyl]-1H-[1,2,3]triazole-4-carboxylic acid [cyano-(4-ethyl-phenyl)-methyl]-amide], the IC50 in experiment [1] was 0.239 µM; in experiment [2], not below 20 µM; in the experiment on β 2c/2i (trypsin-like), not below 20 µM; at β 1i (caspase-like), not below 20 µM; at β 1c (caspase-like), not below 20 µM.
